#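 The compound was tested at five concentrations on cells cultured in 96-well plates, with a 48-hour exposure period. GI50 marks 50% less growth.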 Calls of active or inactive are those of the source. Cut-off read from the data, not from the text of the source: active = GI50 up to about 1.1 µM and inactive = higher.
# Key:
# Experiment in all cases: DTP human tumour cell line panel, 48 h
# MDA-MB-231 = tested on: MDA-MB-231
# MDA-N = tested on: MDA-N
# PC-3 = tested on: PC-3
# NCI/ADR-RES = tested on: NCI/ADR-RES
# UO-31 = tested on: UO-31
# CCRF-CEM = tested on: CCRF-CEM
# LOX IMVI = tested on: LOX IMVI
# HCT-116 = tested on: HCT-116
# MDA-MB-435 = tested on: MDA-MB-435
# SK-MEL-28 = tested on: SK-MEL-28
# OVCAR-5 = tested on: OVCAR-5
# SK-MEL-5 = tested on: SK-MEL-5
# IGROV-1 = tested on: IGROV-1
# NCI-H522 = tested on: NCI-H522
# OVCAR-3 = tested on: OVCAR-3
# HCT-15 = tested on: HCT-15
# Hs-578T = tested on: Hs-578T
# OVCAR-8 = tested on: OVCAR-8
# CAKI-1 = tested on: CAKI-1
# SK-OV-3 = tested on: SK-OV-3
# COLO 205 = tested on: COLO 205
# SR = tested on: SR
# EKVX = tested on: EKVX
# SN12C = tested on: SN12C
# 786-0 = tested on: 786-0
# Malme-3M = tested on: Malme-3M
# KM12 = tested on: KM12
# RPMI-8226 = tested on: RPMI-8226
# HL-60 = tested on: HL-60
# K562 = tested on: K562
# RXF 393 = tested on: RXF 393
# SF-539 = tested on: SF-539
# DU-145 = tested on: DU-145
# SNB-19 = tested on: SNB-19
# U-251 = tested on: U-251
# BT-549 = tested on: BT-549
# MOLT-4 = tested on: MOLT-4
# NCI-H460 = tested on: NCI-H460
# A549 = tested on: A549
# T47D = tested on: T47D
# TK-10 = tested on: TK-10
# A498 = tested on: A498
# OVCAR-4 = tested on: OVCAR-4
# SF-295 = tested on: SF-295
# M14 = tested on: M14
# UACC-257 = tested on: UACC-257
# ACHN = tested on: ACHN
# HT-29 = tested on: HT-29
# HOP-62 = tested on: HOP-62
# MCF7 = tested on: MCF7
# NCI-H23 = tested on: NCI-H23
# SW-620 = tested on: SW-620
# NCI-H226 = tested on: NCI-H226
# SNB-75 = tested on: SNB-75
# SK-MEL-2 = tested on: SK-MEL-2
# SF-268 = tested on: SF-268
# HCC 2998 = tested on: HCC 2998
# UACC-62 = tested on: UACC-62
structure (smiles),measurement,setting,value
O=C(Nc1nnc(-c2ccccc2)o1)C(SC(=S)N1CCCCC1)c1ccccc1 (stereo not given),GI50,MDA-MB-231,38.5 µM (inactive)
same,GI50,MDA-N,20.7 µM (inactive)
same,GI50,PC-3,17.5 µM (inactive)
same,GI50,NCI/ADR-RES,3.93 µM (inactive)
same,GI50,UO-31,8.79 µM (inactive)
same,GI50,CCRF-CEM,3.35 µM (inactive)
same,GI50,LOX IMVI,4.16 µM (inactive)
same,GI50,HCT-116,13.4 µM (inactive)
same,GI50,MDA-MB-435,21.3 µM (inactive)
same,GI50,SK-MEL-28,24.1 µM (inactive)
same,GI50,OVCAR-5,26.6 µM (inactive)
same,GI50,SK-MEL-5,13.6 µM (inactive)
same,GI50,IGROV-1,15.9 µM (inactive)
same,GI50,NCI-H522,23.5 µM (inactive)
same,GI50,OVCAR-3,17.3 µM (inactive)
same,GI50,HCT-15,5.02 µM
same,GI50,Hs-578T,59.8 µM (inactive)
same,GI50,OVCAR-8,26.5 µM (inactive)
same,GI50,CAKI-1,18.9 µM (inactive)
same,GI50,SK-OV-3,28.4 µM (inactive)
same,GI50,COLO 205,31 µM (inactive)
same,GI50,SR,4.98 µM (inactive)
same,GI50,EKVX,20.9 µM (inactive)
same,GI50,SN12C,10.9 µM (inactive)
same,GI50,786-0,16.7 µM (inactive)
same,GI50,Malme-3M,26.2 µM (inactive)
same,GI50,KM12,22.9 µM (inactive)
same,GI50,RPMI-8226,16.2 µM (inactive)
same,GI50,HL-60,3.11 µM (inactive)
same,GI50,K562,9.55 µM (inactive)
same,GI50,RXF 393,26.3 µM (inactive)
same,GI50,SF-539,28.1 µM (inactive)
same,GI50,DU-145,17.2 µM (inactive)
same,GI50,SNB-19,32.1 µM (inactive)
same,GI50,U-251,14.4 µM (inactive)
same,GI50,BT-549,14 µM (inactive)
same,GI50,MOLT-4,3.53 µM (inactive)
same,GI50,NCI-H460,7.66 µM (inactive)
same,GI50,A549,17.1 µM (inactive)
same,GI50,T47D,31.2 µM (inactive)
same,GI50,TK-10,56 µM (inactive)
same,GI50,A498,27.3 µM (inactive)
same,GI50,OVCAR-4,30.5 µM (inactive)
same,GI50,SF-295,14.1 µM (inactive)
same,GI50,M14,12.6 µM (inactive)
same,GI50,UACC-257,32.4 µM (inactive)
same,GI50,ACHN,15.1 µM (inactive)
same,GI50,HT-29,20.6 µM (inactive)
same,GI50,HOP-62,18.3 µM (inactive)
same,GI50,MCF7,23.4 µM (inactive)
same,GI50,NCI-H23,12.4 µM (inactive)
same,GI50,SW-620,31.8 µM (inactive)
same,GI50,NCI-H226,25.4 µM (inactive)
same,GI50,SNB-75,30.4 µM (inactive)
same,GI50,SK-MEL-2,17.7 µM (inactive)
NCCCn1c(Cl)nc2ccccc21,GI50,MDA-MB-231,> 100 µM (inactive)
same,GI50,MDA-N,> 100 µM (inactive)
same,GI50,PC-3,> 100 µM (inactive)
same,GI50,NCI/ADR-RES,> 100 µM (inactive)
same,GI50,UO-31,> 100 µM (inactive)
same,GI50,CCRF-CEM,> 100 µM (inactive)
same,GI50,LOX IMVI,> 100 µM (inactive)
same,GI50,HCT-116,> 100 µM (inactive)
same,GI50,MDA-MB-435,> 100 µM (inactive)
same,GI50,SK-MEL-28,> 100 µM (inactive)
same,GI50,SF-268,> 100 µM (inactive)
same,GI50,OVCAR-5,> 100 µM (inactive)
same,GI50,SK-MEL-5,> 100 µM (inactive)
same,GI50,IGROV-1,> 100 µM (inactive)
same,GI50,NCI-H522,> 100 µM (inactive)
same,GI50,OVCAR-3,> 100 µM (inactive)
same,GI50,HCT-15,> 100 µM
same,GI50,Hs-578T,> 100 µM (inactive)
same,GI50,OVCAR-8,> 100 µM (inactive)
same,GI50,CAKI-1,> 100 µM (inactive)
same,GI50,SK-OV-3,> 100 µM (inactive)
same,GI50,COLO 205,> 100 µM (inactive)
same,GI50,SR,> 100 µM (inactive)
same,GI50,EKVX,> 100 µM (inactive)
same,GI50,SN12C,> 100 µM (inactive)
same,GI50,786-0,> 100 µM (inactive)
same,GI50,Malme-3M,> 100 µM (inactive)
same,GI50,KM12,> 100 µM (inactive)
same,GI50,RPMI-8226,> 100 µM (inactive)
same,GI50,HL-60,> 100 µM (inactive)
same,GI50,K562,> 100 µM (inactive)
same,GI50,RXF 393,> 100 µM (inactive)
same,GI50,HCC 2998,> 100 µM (inactive)
same,GI50,DU-145,> 100 µM (inactive)
same,GI50,SNB-19,> 100 µM (inactive)
same,GI50,U-251,> 100 µM (inactive)
same,GI50,BT-549,> 100 µM (inactive)
same,GI50,MOLT-4,> 100 µM (inactive)
same,GI50,NCI-H460,> 100 µM (inactive)
same,GI50,A549,> 100 µM (inactive)
same,GI50,UACC-62,> 100 µM (inactive)
same,GI50,T47D,> 100 µM (inactive)
same,GI50,A498,> 100 µM (inactive)
same,GI50,OVCAR-4,> 100 µM (inactive)
same,GI50,SF-295,> 100 µM (inactive)
same,GI50,M14,> 100 µM (inactive)
same,GI50,ACHN,> 100 µM (inactive)
same,GI50,HT-29,> 100 µM (inactive)
same,GI50,HOP-62,> 100 µM (inactive)
same,GI50,MCF7,> 100 µM (inactive)
same,GI50,NCI-H23,> 100 µM (inactive)
same,GI50,SW-620,> 100 µM (inactive)
same,GI50,NCI-H226,> 100 µM (inactive)
same,GI50,SNB-75,> 100 µM (inactive)
same,GI50,SK-MEL-2,> 100 µM (inactive)

# — ChEMBL document CHEMBL1201862, “PubChem BioAssay data set” (2004)
